In ChEMBL document CHEMBL1201862, “PubChem BioAssay data set” (2004):
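In this assay, cells in 96-well plates receive the compound at five concentrations for 48 hours. Endpoints are linearly interpolated between the surrounding concentrations. GI50 = concentration required for 50% inhibition of growth.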 Active and inactive are the calls of the source. Rule as the data show it: active = GI50 up to about 1.1 µM and inactive = higher.

Experiments:
Assay in all cases: NCI-60 cell line screen, 48 h
[1] = tested on: COLO 205
[2] = tested on: SN12C
[3] = tested on: CCRF-CEM
[4] = tested on: PC-3
[5] = tested on: UO-31
[6] = tested on: OVCAR-8
[7] = tested on: HCT-15
[8] = tested on: RPMI-8226
[9] = tested on: NCI/ADR-RES
[10] = tested on: A549
[11] = tested on: MDA-MB-435
[12] = tested on: MCF7
[13] = tested on: UACC-257
[14] = tested on: HCC 2998
[15] = tested on: SR
[16] = tested on: SF-295
[17] = tested on: 786-0
[18] = tested on: T47D
[19] = tested on: SW-620
[20] = tested on: KM12
[21] = tested on: MDA-N
[22] = tested on: SF-539
[23] = tested on: HCT-116
[24] = tested on: MDA-MB-231
[25] = tested on: ACHN
[26] = tested on: SNB-19
[27] = tested on: SNB-75
[28] = tested on: NCI-H522
[29] = tested on: UACC-62
[30] = tested on: M14
[31] = tested on: U-251
[32] = tested on: Malme-3M
[33] = tested on: CAKI-1
[34] = tested on: Hs-578T
[35] = tested on: IGROV-1
[36] = tested on: HOP-92
[37] = tested on: LOX IMVI
[38] = tested on: SK-OV-3
[39] = tested on: SK-MEL-28
[40] = tested on: EKVX
[41] = tested on: SF-268
[42] = tested on: HL-60
[43] = tested on: SK-MEL-5
[44] = tested on: OVCAR-4
[45] = tested on: NCI-H460
[46] = tested on: MOLT-4
[47] = tested on: SK-MEL-2
[48] = tested on: HOP-62
[49] = tested on: K562
[50] = tested on: TK-10
[51] = tested on: BT-549
[52] = tested on: DU-145
[53] = tested on: RXF 393
[54] = tested on: HT-29
[55] = tested on: NCI-H226
[56] = tested on: OVCAR-5
[57] = tested on: A498
[58] = tested on: OVCAR-3
[59] = tested on: NCI-H23

Measured: GI50

Cc1nc(-c2cc3ccccc3oc2=O)cs1
> 100 µM: [7]
active: [27] < 0.01 µM
inactive: [1] > 100 µM | [2] > 100 µM | [3] > 100 µM | [4] > 100 µM | [5] > 100 µM | [6] 47 µM | [8] > 100 µM | [9] 78.5 µM | [10] > 100 µM | [11] > 100 µM | [12] > 100 µM | [13] > 100 µM | [14] > 100 µM | [15] 59 µM | [16] 35.5 µM | [17] 34 µM | [18] > 100 µM | [19] > 100 µM | [20] > 100 µM | [21] > 100 µM | [22] 70 µM | [23] 96.2 µM | [24] 25.1 µM | [25] 52.5 µM | [26] 40.6 µM | [28] 17 µM | [29] 31.3 µM | [30] > 100 µM | [31] 32 µM | [32] 7.23 µM | [33] > 100 µM | [34] 18.4 µM | [35] 17.1 µM | [36] 19 µM | [37] > 100 µM | [38] > 100 µM | [39] > 100 µM | [40] 34.2 µM | [41] 42.9 µM | [42] > 100 µM | [43] > 100 µM | [44] > 100 µM | [45] > 100 µM | [46] > 100 µM | [47] 85.3 µM | [48] 16.6 µM | [49] > 100 µM | [50] 37.4 µM | [51] 15.9 µM | [52] > 100 µM | [53] 38.2 µM | [54] > 100 µM | [55] 30.3 µM | [56] > 100 µM

C[C@]12CCC3=NCCN3C1=CC[C@@H]1[C@@H]2CC[C@@]2(C)[C@H]1CC[C@]2(C)O
inactive: [1] 25.8 µM | [2] > 100 µM | [4] 62.5 µM | [57] 26.9 µM | [5] 68.1 µM | [6] 45.9 µM | [8] 15 µM | [9] > 100 µM | [10] > 100 µM | [11] 84.9 µM | [12] 61.9 µM | [13] 24.4 µM | [15] 38.8 µM | [16] 20.7 µM | [17] 14.6 µM | [18] 87.1 µM | [19] 85.1 µM | [20] 82.6 µM | [21] 61.9 µM | [58] > 100 µM | [22] 22.2 µM | [23] 31 µM | [24] > 100 µM | [25] > 100 µM | [26] > 100 µM | [27] 40.7 µM | [28] 58.1 µM | [29] 29.3 µM | [30] 89.1 µM | [31] 87.3 µM | [32] 24.5 µM | [33] > 100 µM | [34] 30.5 µM | [35] 39.1 µM | [36] 37.2 µM | [37] 32.2 µM | [38] > 100 µM | [39] 28.8 µM | [40] 96.4 µM | [41] 76.7 µM | [43] 17.6 µM | [44] > 100 µM | [45] 38.3 µM | [46] 35.3 µM | [47] 50 µM | [48] 84.9 µM | [49] 34.7 µM | [50] 41.1 µM | [51] 44 µM | [52] > 100 µM | [53] 23 µM | [54] 16.1 µM | [55] 39.5 µM | [59] 59.6 µM | [56] > 100 µM
53.2 µM: [7]

O=C1NCC2(CCN(Cc3ccccc3)CC2)N1
> 100 µM: [7]
inactive: [1] > 100 µM | [2] > 100 µM | [3] > 100 µM | [4] > 100 µM | [5] > 100 µM | [6] > 100 µM | [8] > 100 µM | [9] > 100 µM | [10] > 100 µM | [11] > 100 µM | [12] > 100 µM | [13] > 100 µM | [14] > 100 µM | [15] > 100 µM | [16] > 100 µM | [17] > 100 µM | [18] > 100 µM | [19] > 100 µM | [20] > 100 µM | [21] > 100 µM | [58] > 100 µM | [22] > 100 µM | [23] > 100 µM | [24] > 100 µM | [25] > 100 µM | [26] > 100 µM | [27] > 100 µM | [28] > 100 µM | [29] > 100 µM | [30] > 100 µM | [31] > 100 µM | [32] > 100 µM | [33] > 100 µM | [34] > 100 µM | [35] > 100 µM | [36] > 100 µM | [37] > 100 µM | [38] > 100 µM | [39] > 100 µM | [40] > 100 µM | [41] > 100 µM | [42] > 100 µM | [43] > 100 µM | [44] > 100 µM | [45] > 100 µM | [46] > 100 µM | [47] > 100 µM | [48] > 100 µM | [49] > 100 µM | [50] > 100 µM | [51] > 100 µM | [52] > 100 µM | [53] > 100 µM | [54] > 100 µM | [55] > 100 µM | [59] > 100 µM | [56] > 100 µM

Cc1ccc(-c2cc(O)c3nc4ccccc4n3c2)cc1
inactive: [1] > 100 µM | [2] > 100 µM | [3] > 100 µM | [4] > 100 µM | [57] > 100 µM | [5] > 100 µM | [6] 54.3 µM | [8] > 100 µM | [9] > 100 µM | [10] > 100 µM | [11] 5.27 µM | [12] > 100 µM | [13] > 100 µM | [15] > 100 µM | [16] > 100 µM | [17] > 100 µM | [18] > 100 µM | [19] > 100 µM | [20] > 100 µM | [21] > 100 µM | [58] > 100 µM | [22] > 100 µM | [23] > 100 µM | [24] > 100 µM | [26] > 100 µM | [27] > 100 µM | [28] 7.38 µM | [29] > 100 µM | [30] > 100 µM | [31] > 100 µM | [32] > 100 µM | [33] > 100 µM | [34] > 100 µM | [35] > 100 µM | [36] > 100 µM | [37] 75 µM | [38] > 100 µM | [39] > 100 µM | [40] > 100 µM | [41] > 100 µM | [42] > 100 µM | [44] > 100 µM | [45] 60.8 µM | [46] > 100 µM | [48] > 100 µM | [49] > 100 µM | [50] > 100 µM | [51] > 100 µM | [52] > 100 µM | [53] > 100 µM | [54] > 100 µM | [55] > 100 µM | [59] > 100 µM
> 100 µM: [7]

O=C1OC(C2Cc3ccccc3C2=O)c2ccccc21 (configuration not stated)
> 100 µM: [7]
inactive: [1] > 100 µM | [2] > 100 µM | [3] > 100 µM | [4] > 100 µM | [5] > 100 µM | [6] > 100 µM | [8] > 100 µM | [9] > 100 µM | [10] > 100 µM | [11] > 100 µM | [12] > 100 µM | [13] > 100 µM | [14] > 100 µM | [15] > 100 µM | [16] > 100 µM | [17] > 100 µM | [18] > 100 µM | [19] > 100 µM | [20] > 100 µM | [21] > 100 µM | [58] > 100 µM | [22] > 100 µM | [23] > 100 µM | [24] > 100 µM | [25] > 100 µM | [26] > 100 µM | [27] > 100 µM | [28] > 100 µM | [29] > 100 µM | [30] > 100 µM | [31] > 100 µM | [32] > 100 µM | [33] > 100 µM | [34] > 100 µM | [35] > 100 µM | [36] > 100 µM | [37] 99.1 µM | [38] > 100 µM | [39] > 100 µM | [40] > 100 µM | [41] > 100 µM | [42] > 100 µM | [43] > 100 µM | [44] > 100 µM | [45] > 100 µM | [46] > 100 µM | [47] > 100 µM | [48] > 100 µM | [49] > 100 µM | [50] > 100 µM | [51] > 100 µM | [52] > 100 µM | [53] > 100 µM | [54] 26.1 µM | [55] > 100 µM | [59] > 100 µM | [56] > 100 µM
